Experimental data as given in patent US11896680B2, “Detection method” (Mie University, priority 2017, dated 2024).

How the values were obtained:
[1] = test system: large intestine of a mouse (normal mucosal tissue); experiment: vital staining of normal mouse large intestine, imaged with confocal or multiphoton laser microscope
Protocol: (§1) 100 mg of curcumin (Tokyo Kasei, cat. #C2302, purity 97.0%) was suspended in 5 mL of ethanol, and further diluted 10-fold with ethanol. It was mixed with the same amount of glycerin, and further diluted 10-fold with glycerin. The mixture was mixed with the same amount of purified water to obtain a staining solution of curcumin. As for Red #106, its staining solution is obtained by dissolving the powder in saline to the concentration of 1 mg/mL.
(§2) C57BL/6N mice purchased from Japan SLC, Inc. were used in the tests. All tests were performed on male, 8-week-old mice weighing 20˜25 grams.
(§3) A multiphoton laser microscope of FVMPE-RS (Olympus) was used with the irradiation wavelength of 800 nm. Laser irradiation was performed at 5.8˜48.2% of its full power output. A confocal laser microscope of FV1000 (Olympus) was used with the irradiation wavelength of 488 nm and 594 nm, wherein the laser irradiation at 488 nm was performed at […] of its full power output, and the laser irradiation at 594 nm was performed at 13˜13.5% of its full power output. The direction of irradiation and staining from serosal or luminal side are described in the figures.

[2] = test system: large intestine (cancer tumor site) of a colon cancer mouse; experiment: vital staining of cancer tumor site in large intestine of colon cancer mouse, imaged with laser microscope; type: in vivo
Protocol: as §1, §2
Model mice with colon cancer were prepared by intraperitoneally administering 10 mg/kg of azoxymethane (AOM) dissolved in saline 4 times at weekly intervals to C57BL/6N mice.
as §3

[3] = five-layer structure of normal large intestine
[4] = stained from serosa side, confocal laser microscope, FIG. 5c
[5] = stained and photographed from luminal side, FIG. 11A and 11B

| SMILES | staining of network of capillaries surrounding the glandular structures of epithelial and glandular layers (1) [1, 3] | staining of the smooth muscle in muscle layer (4) [1, 3] | staining of the smooth muscle in muscularis mucosae (2) [1, 3] | staining of the wall of a thick blood vessel inside muscle layer [1, 3] | staining of Auerbach's plexus inside muscle layer [1, 3] | staining of glandular cells in epithelial and glandular layers (1) [1, 3] | staining of nerve fibers of Auerbach's plexus [1, 4] | staining of perikaryon of Auerbach's plexus [1, 4] | staining of cytoplasm of invaded cancer cells inside smooth muscle layer relative to surrounding tissues ([2]; stained and observed from serosal side, confocal laser microscope, FIG. 10A) | staining of cytoplasm of cancer cells [2, 5] | staining of nuclei of cancer cells [2, 5] |
| --- | --- | --- | --- | --- | --- | --- | --- | --- | --- | --- | --- |
| CCN(CC)c1ccc2c(-c3ccc(S(=O)(=O)[O-])cc3S(=O)(=O)[O-])c3ccc(=[N+](CC)CC)cc-3oc2c1.[Na+] [Red #106] | severely positive | mildly positive | mildly positive | severely positive |  |  |  |  |  |  |  |
| COc1cc(/C=C/C(=O)CC(=O)/C=C/c2ccc(O)c(OC)c2)ccc1O [curcumin] |  | mildly positive | severely positive |  | severely positive | severely positive | lightly | darkly | darker than surrounding tissues | stained severely | stained negatively |
